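All cell lines were grown in 96-well plates and treated with compound for 48 hours. TGI: concentration producing complete growth inhibition.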
Legend:
Assay in all cases: inhibition of tumour cell growth, NCI panel, 48 h
[1] = system: 786-0 renal
[2] = system: A498 renal
[3] = system: A549 NSCLC
[4] = system: HCC-2998 colon
[5] = system: HCT-116 colon
[6] = system: HCT-15 colon
[7] = system: IGROV1 ovarian
[8] = system: MCF7 breast
[9] = system: MDA-N
[10] = system: NCI/ADR-RES ovarian
[11] = system: PC-3 prostate
[12] = system: RPMI-8226 leukemia
[13] = system: SK-MEL-2 melanoma
[14] = system: T-47D breast
[15] = system: UACC-257 melanoma
[16] = system: SR leukemia

Structure (SMILES) | TGI [1] [µM] | TGI [2] [µM] | TGI [3] [µM] | TGI [4] [µM] | TGI [5] [µM] | TGI [6] [µM] | TGI [7] [µM] | TGI [8] [µM] | TGI [9] [µM] | TGI [10] [µM] | TGI [11] [µM] | TGI [12] [µM] | TGI [13] [µM] | TGI [14] [µM] | TGI [15] [µM] | TGI [16] [µM]
CCOC(=O)c1cc(C2CCN(Cc3ccccc3)C2=O)c(C(=O)/C=C(/C)N)[nH]1 (stereo not drawn) | > 100 | > 100 | > 100 | > 100 | > 100 | > 100 | > 100 | > 100 | > 100 | > 100 | > 100 | > 100 | > 100 | > 100 | > 100 | 
O=C(N/N=C\c1ccc(Cl)cc1)Nc1cccc2ccccc12 | 3.9 | 7.13 | 27 | > 100 | > 23.2 | > 31.6 | > 25.8 | 22.3 | > 21.3 | > 100 | > 100 | > 100 | > 100 | > 100 | > 100 | 9.11
CSc1c(S(C)=O)c2ccccc2n1C (stereo not drawn) | > 100 | > 100 | > 100 | > 100 | > 100 | > 100 | > 100 | > 100 | > 100 | > 100 | > 100 | > 100 | > 100 | > 100 | > 100 | > 100
COC(=O)CCc1cc(OC)c2oc(-c3ccc(OC)c(OC)c3)c(CO)c2c1 | > 100 | > 100 | > 100 | > 100 | > 100 | > 100 | > 100 | > 100 | > 100 | > 100 | > 100 | > 100 | > 100 | > 100 | > 100 | > 100
CC(=O)c1sc2c(c1OC(=O)c1ccccc1)c(=O)n(-c1ccccc1)c(=S)n2-c1ccccc1 | 17.9 | 7.87 | > 100 | 45.4 | 34.2 | 62.9 | 54.5 | 99.8 | 27.2 | 28.7 | 14.9 | 7.32 | 7.88 | > 50.3 | > 23.9 | 
CC1=C(C(=O)NNC(=O)c2ccccc2O)CC(C(=O)NNC(=O)c2ccccc2O)=C(C)N1 | > 61.7 |  | > 100 | > 100 | > 51.5 | > 100 | > 35.4 | > 48.5 | > 100 | > 51.3 | > 100 | > 100 | > 100 | > 32.6 | > 100 | > 29.2
CCOC(OCC)[C@@H]1C[C@@H]2N(O[C@H](OC3CCCC3(c3ccccc3)c3ccccc3)[C@H](OC(C)=O)[C@@]2(CC)Cc2ccc(OC)c(OC)c2)O1 (stereo partly drawn) | > 100 |  | > 100 | > 100 | > 100 | > 100 | > 100 | > 100 | > 100 | > 100 | > 100 |  | > 100 | > 100 | > 100 | > 100
Cc1ccc(/C=C2\CCS(=O)(=O)c3ccccc3C2=O)cc1 | 34 | 36.5 | > 100 | 28.9 | 26.1 | 27.7 | 28.7 | 34.8 | 77.2 | 28.2 | 45.3 | > 100 | 44 | 32.6 | 35.1 | 63.7
Cc1ccc2nc(-c3nccn3C)cc(C(=O)NC(C)CN(C)C)c2c1 (stereo not drawn) | > 100 | > 100 | > 100 |  | > 100 | > 100 | > 100 | > 100 | > 100 | > 100 | > 100 |  | > 100 | > 100 | > 100 | 
O=C(NCCCN1CCN(CCCNC(=O)c2cc(-c3ccccc3)nc3ccccc23)CC1)c1cc(-c2ccccc2)nc2ccccc12 | 21.5 | 73.6 | 48.7 | 6.06 | > 100 | > 100 | 27.8 | 53.5 | 20.4 | > 72.3 | 26 | > 57.8 | 36.9 | 33.9 | 5.45 | 
CCOC(=O)NC(C(F)(F)F)(C(F)(F)F)P(=O)(OCC)OCC | > 100 | > 100 |  | > 100 | > 100 | > 100 | > 100 | > 100 | > 100 | > 100 | > 100 | 87.4 |  | > 100 |  | 
Cc1c2c(n3c(nc4ccccc43)c1C#N)NCC2 | > 10 | > 10 | > 10 |  | > 10 | > 10 | > 10 | > 10 | > 10 | > 10 | > 10 | > 10 |  | > 10 | > 10 | > 10
COc1c(-c2ccc(F)cc2)oc2c(CC(=O)O)cccc2c1=O | > 100 | > 100 | > 100 | > 100 | > 100 |  | > 100 | > 100 | > 100 | > 100 | > 100 |  | > 100 | > 100 | > 100 | > 100
O=C(O)c1ccc(Nc2nc3ccc(C(F)(F)F)cc3nc2C(=O)O)cc1 | > 100 |  | > 100 | > 100 | > 100 | > 100 | > 100 | > 100 | > 100 | > 100 | > 100 | > 100 | > 100 | > 100 | > 100 | > 100
Clc1ccc2c(c1)CC1C[N+]3=C(CCCCC3)C1=C2 (stereo not drawn) | > 100 | > 100 | > 100 |  | > 100 | > 100 | > 100 | > 100 | > 100 | > 100 | > 100 |  | 97 | > 100 | 94.1 | 
C[C@@]12C[C@@H](c3ccccc3O1)N1CCCSC1=N2 | > 100 | > 100 |  | > 100 | > 100 | > 100 | > 100 | > 100 | > 100 | > 100 | > 100 | > 100 | > 100 | > 100 | > 100 | > 100

Structure (SMILES) | TGI [1] [µM] | TGI [2] [µM] | TGI [3] [µM] | TGI [4] [µM] | TGI [5] [µM] | TGI [6] [µM] | TGI [7] [µM] | TGI [8] [µM] | TGI [9] [µM] | TGI [10] [µM] | TGI [11] [µM] | TGI [12] [µM] | TGI [13] [µM] | TGI [14] [µM] | TGI [15] [µM] | TGI [16] [µM]
CCCCCCC(O)C(=O)OC1C2C(CC1(C)C)C(O)C13OC1C(O)C1(CO1)[C@@]23C (stereo partly drawn) | 86.8 |  | > 100 |  | > 100 | > 100 | > 100 | > 100 | > 100 | > 100 | > 100 | > 100 |  | > 100 | > 100 | > 100
CCOC(=O)Cc1ccc(Nc2nc3cc(F)c(F)cc3nc2C(=O)OCC)cc1 | > 100 |  | > 100 | 69.6 | > 100 | > 100 | > 100 | > 100 | > 100 | > 100 | > 100 | > 100 | 92.2 | > 100 | > 100 | > 100
CCN(CC)CCC(=O)Nc1ccc2sc3ccccc3c(=O)c2n1 | 35.1 |  | 37 | 42.7 | 29.4 | 62.3 | 35.8 | 36.5 | 30.3 | 72 | 40.9 | 43.5 | 45.8 | 45.9 | 37.5 | > 100
O=C(O)c1ccccc1/C=N\N(CCO)C1=NCCN1 | > 100 |  | > 100 | > 100 | > 100 | > 100 | > 100 | > 100 | > 100 |  | > 100 | > 100 | > 100 | > 100 |  | > 100
O=C(O)c1ccc(Nc2nc3ccc(C(F)(F)F)cc3nc2-c2ccccc2)cc1 | > 100 |  | > 100 | 40.3 | > 100 | 57.3 | > 100 | > 100 | > 100 | 96.2 | > 100 | > 100 |  | 52.8 | > 100 | > 100
Cc1ccc(C(CCO)CCO)nc1 | > 100 | > 100 | > 100 | > 100 | > 100 | > 100 |  | > 100 | > 100 | > 100 | > 100 | > 100 | > 100 | > 100 | > 100 | > 100
Cc1nnc(N)nc1C/C=C/C(C)Sc1ccc(Cl)cc1 (stereo not drawn) | 33.1 | 25.9 | 58.6 | 31.3 | 33.8 | > 54.1 | 13.5 | 33.2 | > 100 | > 60.3 | 17.8 | > 70 | 30.6 | 42.4 | 30.8 | 
O=C1NC(NNc2ccccc2)=N/C1=C\c1ccco1 | 40.2 | > 100 | > 100 | 33 | 37.9 | 33 | 34 | 34 | > 100 | > 100 | 71.5 | 66 | 48.2 | 44.9 | 63.5 | 
COc1ccc(C(SCCO)(c2ccc(OC)cc2)c2ccc(OC)cc2)cc1 | 29.7 | 40.1 | 69.3 | 30.5 | 29.2 | 44.6 |  | 31.6 | 18.1 | 49.1 | 42.3 |  | 31.7 | 33.7 | 32.5 | 26.7
CCOC(=O)C(CCSC)(CCSC)C(=O)OCC | > 100 | > 100 | > 100 | > 100 | > 100 | > 100 | > 100 | > 100 | > 100 | > 100 | > 100 | > 100 | > 100 | > 100 | > 100 | 
CC(NNC(=S)N1CCCC1)c1cccnn1 (stereo not drawn) | > 100 | 97.5 |  | > 100 | > 44 | > 100 | > 59.3 | 5.33 | > 100 | > 62.9 | > 100 | > 100 | > 100 | > 100 |  | > 100
CCCC1(N2C(=O)c3ccc4c5c(ccc(c35)C2=O)N(C2(CCC)CCCCC2)C4=O)CCCCC1 | > 100 | > 100 | > 100 | > 100 | > 100 | > 100 |  | > 100 | > 100 | > 100 | > 100 | > 100 | > 100 | > 100 |  | 
Cc1cnc2c(c1)C(=O)N(c1ccc(Br)cc1)S2(=O)=O | > 100 |  | > 100 | > 100 | > 100 | > 100 | > 100 | > 100 | > 100 | > 100 | > 100 | > 100 | > 100 | > 100 | > 100 | 
S=C1C(CCCOCc2ccccc2)C2CCCC23CC2(CCN13)OCCS2 (stereo not drawn) | > 10 | > 10 |  | > 10 |  | > 10 | > 10 | > 10 | > 10 | > 10 | > 10 | > 10 | > 10 | > 10 | > 10 | > 10
Cn1c2ccccc2c(=NNc2ccc(S(=O)(=O)N=C(N)N)cc2)c2ccccc21 | 19.2 |  | 26.7 | 19.8 | 17 | 36.7 | 28.5 | 12.9 | 25.1 | 71.1 | 21.3 | 43.4 | 28 | 35.6 | 34.9 | 40.5

Source: PubChem BioAssay (NCI)
